Measurements as given in patent US20240391862A1, “(1,4,5-TRISUBSTITUTED-1H-PYRAZOL-3-YL)OXY-2-ALKOXY ALKYL ACIDS AND THEIR DERIVATIVES, THEIR SALTS AND THEIR USE AS HERBICIDAL AGENTS” (Bayer AKtiengesellschaft, priority 2021, published 2024).

How the values were obtained:
ZEAMX = assay: Post-emergence herbicidal effect and crop plant compatibility, greenhouse pot test; type: in vivo, Zea mays; conditions: one-leaf stage, rated visually after about 3 weeks vs untreated controls
Outline: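 Sandy loam pots, greenhouse. One-leaf stage (2–3 wk after sowing) foliar spray; WP/EC in water + 0.5% additive, 600 l/ha; 20–320 g/ha. Visual score ~3 wk, 0–100% vs untreated.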

ABUTH = assay: Post-emergence herbicidal effect, greenhouse pot test; type: in vivo, Abutilon theophrasti; conditions: visual rating about 3 weeks after treatment
Outline: (§1)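 Visual % activity scored roughly 3 weeks post-spray against untreated plants, where 100% means death and 0% equals control. Plants were treated at the one-leaf stage, 2 to 3 weeks after sowing in sandy loam, at 20 to 320 g/ha.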

ALOMY = assay: as above; type: in vivo, Alopecurus myosuroides; conditions: visual rating about 3 weeks after treatment
Outline: as §1

AMARE = assay: as above; type: in vivo, Amaranthus retroflexus; conditions: Amaranthus retroflexus, 504 h, visual rating about 3 weeks after treatment, read-out: Post-emergence effect against AMARE
Outline: as §1

AVEFA = assay: as above; type: in vivo, Avena fatua; conditions: visual rating about 3 weeks after treatment
Outline: as §1

DIGSA = assay: as above; type: in vivo, Digitaria sanguinalis; conditions: 320 g/ha, visual rating about 3 weeks after treatment
Outline: as §1

ECHCG = assay: as above; type: in vivo, Echinochloa crus-galli
Outline: as §1

LOLRI = assay: as above; type: in vivo, Lolium rigidum
Outline: as §1

PHBPU = assay: as above; type: in vivo, Ipomoea purpurea
Outline: as §1

POLCO = assay: as above; type: in vivo, Fallopia convolvulus
Outline: as §1

SETVI = assay: as above; type: in vivo, Setaria viridis
Outline: as §1

VERPE = assay: as above; type: in vivo, Veronica persica
Outline: as §1

VIOTR = assay: as above; type: in vivo, Viola tricolor
Outline: as §1

KCHSC = assay: as above; type: in vivo
Outline: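 Greenhouse plants in sandy loam, sprayed post-emergence at the one-leaf stage (2–3 weeks after sowing) with WP or EC formulations in water plus 0.5% additive at 600 l/ha. Rates 20 to 320 g/ha. Activity rated visually after about 3 weeks against untreated controls (0% like control, 100% dead).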

MATIN = assay: as above; type: in vivo, Tripleurospermum inodorum; conditions: Tripleurospermum inodorum, 504 h, read-out: Post-emergence effect against MATIN in %
Outline: as §1

[1] = 504 h, read-out: Post-emergence effect against KCHSC in %

COC(Oc1nn(-c2ncccc2F)c(-c2ccc(F)nc2)c1C1CC1)C(=O)O (stereo not shown) [Example I-90]
Post-emergence effect at 20 g/ha against ZEAMX in % (ZEAMX; 20 g/ha): 0%
Post-emergence effect at 80 g/ha against ZEAMX in % (ZEAMX; 80 g/ha): 0%
Post-emergence effect at 320 g/ha against ZEAMX in % (ZEAMX; 320 g/ha): 0%
Post-emergence effect against ABUTH (ABUTH; 320 g/ha): 90%
Post-emergence effect against ALOMY (ALOMY; 320 g/ha): 90%
pest or weed control at 320 g/ha (AMARE): 80%
Post-emergence effect against AVEFA (AVEFA; 320 g/ha): 90%
Post-emergence effect against DIGSA (DIGSA): 80%
Post-emergence effect against ECHCG in % (ECHCG; 80 g/ha): 90%
Post-emergence effect against ECHCG in % (ECHCG; 320 g/ha): 90%
Post-emergence effect against LOLRI in % (LOLRI; 320 g/ha): 90%
Post-emergence effect against PHBPU in % (PHBPU; 320 g/ha): 90%
Post-emergence effect against POLCO in % (POLCO; 320 g/ha): 80%
Post-emergence effect against SETVI in % (SETVI; 320 g/ha): 90%
Post-emergence effect against VERPE in % (VERPE; 320 g/ha): 80%
Post-emergence effect against VIOTR in % (VIOTR; 320 g/ha): 90%
Post-emergence effect against KCHSC in % (KCHSC; 320 g/ha): 90%
pest or weed control at 20 g/ha (KCHSC; [1]): 80%
pest or weed control at 80 g/ha (KCHSC; [1]): 90%

CCOC(=O)C(OC)Oc1nn(-c2ncccc2F)c(-c2cncc(F)c2)c1C1CC1 (stereo not shown) [Example I-113]
pest or weed control at 20 g/ha (ABUTH; Abutilon theophrasti, 504 h, 20 g/ha, read-out: Post-emergence effect against ABUTH): 90%
pest or weed control at 80 g/ha (ABUTH; Abutilon theophrasti, 504 h, 80 g/ha, read-out: Post-emergence effect against ABUTH): 90%
pest or weed control at 320 g/ha (ABUTH; Abutilon theophrasti, 504 h, 320 g/ha, read-out: Post-emergence effect against ABUTH): 90%
pest or weed control at 80 g/ha (ALOMY; Alopecurus myosuroides, 504 h, 80 g/ha, read-out: Post-emergence effect against ALOMY): 100%
pest or weed control at 320 g/ha (ALOMY; Alopecurus myosuroides, 504 h, 320 g/ha, read-out: Post-emergence effect against ALOMY): 100%
pest or weed control at 20 g/ha (AMARE; 20 g/ha): 80%
pest or weed control at 80 g/ha (AMARE; 80 g/ha): 80%
pest or weed control at 320 g/ha (AMARE): 80%
pest or weed control at 20 g/ha (AVEFA; Avena fatua, 504 h, 20 g/ha, read-out: Post-emergence effect against AVEFA): 80%
pest or weed control at 80 g/ha (AVEFA; Avena fatua, 504 h, 80 g/ha, read-out: Post-emergence effect against AVEFA): 100%
pest or weed control at 320 g/ha (AVEFA; Avena fatua, 504 h, 320 g/ha, read-out: Post-emergence effect against AVEFA): 100%
pest or weed control at 320 g/ha (DIGSA; Digitaria sanguinalis, 504 h, read-out: Post-emergence effect against DIGSA): 90%
pest or weed control at 20 g/ha (ECHCG; Echinochloa crus-galli, 504 h, 20 g/ha, visual rating about 3 weeks after treatment, read-out: Post-emergence effect against ECHCG): 90%
pest or weed control at 80 g/ha (ECHCG; Echinochloa crus-galli, 504 h, 80 g/ha, read-out: Post-emergence effect against ECHCG in %): 90%
pest or weed control at 320 g/ha (ECHCG; Echinochloa crus-galli, 504 h, 320 g/ha, read-out: Post-emergence effect against ECHCG in %): 90%
pest or weed control at 80 g/ha (LOLRI; Lolium rigidum, 504 h, 80 g/ha, read-out: Post-emergence effect against LOLRI in %): 90%
pest or weed control at 320 g/ha (LOLRI; Lolium rigidum, 504 h, 320 g/ha, read-out: Post-emergence effect against LOLRI in %): 100%
pest or weed control at 80 g/ha (MATIN; 80 g/ha): 80%
pest or weed control at 320 g/ha (MATIN; 320 g/ha): 80%
pest or weed control at 20 g/ha (PHBPU; Ipomoea purpurea, 504 h, 20 g/ha, read-out: Post-emergence effect against PHBPU in %): 90%
pest or weed control at 80 g/ha (PHBPU; Ipomoea purpurea, 504 h, 80 g/ha, read-out: Post-emergence effect against PHBPU in %): 90%
pest or weed control at 320 g/ha (PHBPU; Ipomoea purpurea, 504 h, 320 g/ha, read-out: Post-emergence effect against PHBPU in %): 100%
pest or weed control at 80 g/ha (POLCO; Fallopia convolvulus, 504 h, 80 g/ha, read-out: Post-emergence effect against POLCO in %): 80%
pest or weed control at 320 g/ha (POLCO; Fallopia convolvulus, 504 h, 320 g/ha, read-out: Post-emergence effect against POLCO in %): 80%
pest or weed control at 20 g/ha (SETVI; Setaria viridis, 504 h, 20 g/ha, read-out: Post-emergence effect against SETVI in %): 90%
pest or weed control at 80 g/ha (SETVI; Setaria viridis, 504 h, 80 g/ha, read-out: Post-emergence effect against SETVI in %): 90%
pest or weed control at 320 g/ha (SETVI; Setaria viridis, 504 h, 320 g/ha, read-out: Post-emergence effect against SETVI in %): 90%
pest or weed control at 20 g/ha (VERPE; Veronica persica, 504 h, 20 g/ha, read-out: Post-emergence effect against VERPE in %): 80%
pest or weed control at 80 g/ha (VERPE; Veronica persica, 504 h, 80 g/ha, read-out: Post-emergence effect against VERPE in %): 90%
pest or weed control at 320 g/ha (VERPE; Veronica persica, 504 h, 320 g/ha, read-out: Post-emergence effect against VERPE in %): 90%
pest or weed control at 20 g/ha (VIOTR; Viola tricolor, 504 h, 20 g/ha, read-out: Post-emergence effect against VIOTR in %): 90%
pest or weed control at 80 g/ha (VIOTR; Viola tricolor, 504 h, 80 g/ha, read-out: Post-emergence effect against VIOTR in %): 90%
pest or weed control at 320 g/ha (VIOTR; Viola tricolor, 504 h, 320 g/ha, read-out: Post-emergence effect against VIOTR in %): 90%
pest or weed control at 20 g/ha (KCHSC; [1]): 90%
pest or weed control at 80 g/ha (KCHSC; [1]): 90%
pest or weed control at 320 g/ha (KCHSC; 504 h, 320 g/ha, read-out: Post-emergence effect against KCHSC in %): 90%
